Test results taken from ChEMBL document CHEMBL1136645, “The identification of clinical candidate SB-480848: a potent inhibitor of lipoprotein-associated phospholipase A2” (Bioorg Med Chem Lett, 2003).

Columns and labels:
[1] = Permeability was determined; format: ADME; details: not told; read-out: Permeability (converted)
[2] = biological target: T1, Platelet-activating factor acetylhydrolase (Homo sapiens, UniProt Q13093); test: Inhibitory activity against recombinant human Lp-PLA2
T1 sequence (Q13093 whole entry): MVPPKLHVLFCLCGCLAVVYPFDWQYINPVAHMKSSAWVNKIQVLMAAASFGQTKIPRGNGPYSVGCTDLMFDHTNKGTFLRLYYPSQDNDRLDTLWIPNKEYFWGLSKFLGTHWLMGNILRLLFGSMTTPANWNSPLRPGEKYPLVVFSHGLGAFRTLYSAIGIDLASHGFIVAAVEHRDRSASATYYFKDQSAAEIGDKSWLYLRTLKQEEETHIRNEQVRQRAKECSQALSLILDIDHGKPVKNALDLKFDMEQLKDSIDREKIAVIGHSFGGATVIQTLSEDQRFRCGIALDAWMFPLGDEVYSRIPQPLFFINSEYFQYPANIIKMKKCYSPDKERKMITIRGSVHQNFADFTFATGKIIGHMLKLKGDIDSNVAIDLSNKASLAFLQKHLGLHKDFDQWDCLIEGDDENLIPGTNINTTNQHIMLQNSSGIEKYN

Cytochrome P450 3A4 = Cytochrome P450 3A4 (Homo sapiens, UniProt P08684); test: Inhibitory activity against CYP450 3A4 isozyme; format: ADME
Cytochrome P450 2D6 = Cytochrome P450 2D6 (Homo sapiens, UniProt P10635); test: Inhibitory activity against Cytochrome P450 2D6; format: ADME
[3] = Permeability in plasma; format: ADME, cell-free; details: not told; read-out: Permeability (converted)
Homo sapiens [4] = species on record: Homo sapiens; test: Inhibitory concentration against monocyte chemotaxis
[5] = Oral bioavailability in fed rat; format: ADME, organism-based; details: in vivo
Homo sapiens [6] = species on record: Homo sapiens; test: Inhibitory concentration against lyso-PtdCho production in human LDL
[7] = Oral bioavailability in fasted rat; format: ADME, organism-based; details: in vivo
[8] = Oral bioavailability in dog; format: ADME, organism-based, Canis lupus familiaris; details: in vivo

Sequence of Cytochrome P450 2D6 (P10635 whole entry): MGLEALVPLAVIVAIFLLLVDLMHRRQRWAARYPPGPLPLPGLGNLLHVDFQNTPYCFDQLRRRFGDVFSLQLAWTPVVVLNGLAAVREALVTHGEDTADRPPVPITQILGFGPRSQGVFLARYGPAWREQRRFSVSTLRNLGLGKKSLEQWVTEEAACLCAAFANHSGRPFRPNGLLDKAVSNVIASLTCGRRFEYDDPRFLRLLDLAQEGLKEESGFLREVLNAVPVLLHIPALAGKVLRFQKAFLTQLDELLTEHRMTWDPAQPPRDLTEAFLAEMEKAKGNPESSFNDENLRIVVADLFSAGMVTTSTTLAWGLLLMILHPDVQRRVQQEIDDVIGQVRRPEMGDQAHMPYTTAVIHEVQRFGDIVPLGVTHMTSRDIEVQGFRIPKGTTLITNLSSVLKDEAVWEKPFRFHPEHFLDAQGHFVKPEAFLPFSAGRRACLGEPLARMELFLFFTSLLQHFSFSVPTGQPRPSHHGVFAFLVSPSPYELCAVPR
Sequence of Cytochrome P450 3A4 (P08684 whole entry): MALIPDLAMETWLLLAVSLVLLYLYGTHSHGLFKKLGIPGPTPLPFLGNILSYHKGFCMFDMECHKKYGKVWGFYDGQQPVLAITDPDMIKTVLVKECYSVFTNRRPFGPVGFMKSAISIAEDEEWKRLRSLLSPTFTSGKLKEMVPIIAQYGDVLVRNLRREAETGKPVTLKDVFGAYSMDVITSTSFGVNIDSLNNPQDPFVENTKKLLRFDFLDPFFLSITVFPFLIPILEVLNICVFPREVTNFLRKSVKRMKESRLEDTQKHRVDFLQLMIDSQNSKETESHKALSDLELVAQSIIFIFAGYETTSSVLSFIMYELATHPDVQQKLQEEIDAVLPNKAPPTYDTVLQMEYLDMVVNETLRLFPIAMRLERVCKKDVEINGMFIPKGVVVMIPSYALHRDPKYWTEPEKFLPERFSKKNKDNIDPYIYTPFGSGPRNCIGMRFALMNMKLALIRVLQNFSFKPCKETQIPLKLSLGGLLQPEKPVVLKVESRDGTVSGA

Compound	Papp [1] [×10⁻⁶ cm/s]	IC50 [2] [µM]	IC50 (Cytochrome P450 3A4) [µM]	IC50 (Cytochrome P450 2D6) [µM]	Papp [3] [×10⁻⁶ cm/s]	further results
CCN(CC)CCN(Cc1ccc(-c2ccc(C(F)(F)F)cc2)cc1)C(=O)Cn1cc([S+](C)[O-])c(=O)nc1SCc1ccc(F)cc1 (stereo unspecified)	1.67	0.0008	–	–	–	–
CCN(CC)CCN(Cc1ccc(-c2ccc(Cl)cc2)cc1)C(=O)Cn1c(SCc2ccc(F)cc2)nc(=O)c2c1CCCC2	–	0.00025	5	6	–	–
CCN(CC)CCN(Cc1ccc(-c2ccc(C(F)(F)F)cc2)cc1)C(=O)Cn1cc(CCN)c(=O)nc1SCc1ccc(F)cc1	–	0.038	–	–	–	–
CCN(CC)CCN(Cc1ccc(-c2ccc(Cl)cc2)cc1)C(=O)Cn1c(SCc2ccc(F)cc2)nc(=O)c2c1CCC2	–	0.0004	18	25	38.9	–
CCCc1cn(CC(=O)N(CCN(CC)CC)Cc2ccc(-c3ccc(C(F)(F)F)cc3)cc2)c(SCc2ccc(F)cc2)nc1=O	36.1	0.0008	5	22	–	–
CCN(CC)CCN(Cc1ccc(-c2ccc(C(F)(F)F)cc2)cc1)C(=O)Cn1cc(Cl)c(=O)nc1SCc1ccc(F)cc1	30.6	0.003	29	83	–	–
CCN(CC)CCN(Cc1ccc(-c2ccc(C(F)(F)F)cc2)cc1)C(=O)Cn1cc(CCNC(C)=O)c(=O)nc1SCc1ccc(F)cc1	–	0.006	–	–	0.833	–
CCc1cn(CC(=O)N(CCN(CC)CC)Cc2ccc(-c3ccc(C(F)(F)F)cc3)cc2)c(SCc2ccc(F)cc2)nc1=O	27.8	0.0004	11	24	–	–
CCN(CC)CCN(Cc1ccc(-c2ccc(C(F)(F)F)cc2)cc1)C(=O)Cn1c(SCc2ccc(F)cc2)nc(=O)c2c1CCC2 [DARAPLADIB]	–	–	–	26	27.8	IC50 (Homo sapiens [4]): 4 µM; bioavailability [5]: 11%; IC50 (Homo sapiens [6]): 4 µM; bioavailability [7]: ~21%; bioavailability [8]: 28%
CCN(CC)CCN(Cc1ccc(-c2ccc(C(F)(F)F)cc2)cc1)C(=O)Cn1cc(OC)c(=O)nc1SCc1ccc(F)cc1	6.94	–	–	–	–	–
CCN(CC)CCN(Cc1ccc(-c2ccc(C(F)(F)F)cc2)cc1)C(=O)Cn1c(C)cc(=O)nc1SCc1ccc(F)cc1	–	–	22	47	13.9	–
CCN(CC)CCN(Cc1ccc(-c2ccc(C(F)(F)F)cc2)cc1)C(=O)Cn1cc(CCNS(C)(=O)=O)c(=O)nc1SCc1ccc(F)cc1	–	0.001	–	–	1.39	–
CCN(CC)CCN(Cc1ccc(-c2ccc(C(F)(F)F)cc2)cc1)C(=O)Cn1cc(Br)c(=O)nc1SCc1ccc(F)cc1	25	0.001	39	56	–	–
CCN(CC)CCN(Cc1ccc(-c2ccc(C(F)(F)F)cc2)cc1)C(=O)Cn1cc(C)c(=O)nc1SCc1ccc(F)cc1	22.2	0.001	17	39	–	–
CCN(CC)CCN(Cc1ccc(-c2ccc(Cl)cc2)cc1)C(=O)Cn1cc(C)c(=O)nc1SCc1ccc(F)cc1	27.8	–	13	15	–	–
CCN(CC)CCN(Cc1ccc(-c2ccc(C(F)(F)F)cc2)cc1)C(=O)Cn1c(SCc2ccc(F)cc2)nc(=O)c(C)c1C	–	–	22	24	8.33	–
CCN(CC)CCN(Cc1ccc(-c2ccc(C(F)(F)F)cc2)cc1)C(=O)Cn1cc(CCO)c(=O)nc1SCc1ccc(F)cc1	0.833	–	–	–	–	–
CCc1cn(CC(=O)N(CCN(CC)CC)Cc2ccc(-c3ccc(Cl)cc3)cc2)c(SCc2ccc(F)cc2)nc1=O	33.3	–	7	14	–	–
CCN(CC)CCN(Cc1ccc(-c2ccc(C(F)(F)F)cc2)cc1)C(=O)Cn1c(SCc2ccc(F)cc2)nc(=O)c2c1CCCC2	–	0.0001	10	9	16.7	–
CCN(CC)CCN(Cc1ccc(-c2ccc(C(F)(F)F)cc2)cc1)C(=O)Cn1cc(CO)c(=O)nc1SCc1ccc(F)cc1	0.556	0.0015	–	–	–	–
CCN(CC)CCN(Cc1ccc(-c2ccc(C(F)(F)F)cc2)cc1)C(=O)Cn1cc(Cc2cnn(C)c2)c(=O)nc1SCc1ccc(F)cc1	–	–	–	–	–	bioavailability [5]: 2%
CCN(CC)CCN(Cc1ccc(-c2ccc(C(F)(F)F)cc2)cc1)C(=O)Cn1cc(SC)c(=O)nc1SCc1ccc(F)cc1	8.33	0.0008	15	39	–	–
